Values joined by “and” are separate entries in the source; they are usually repeats but may differ in a detail not shown here. Identical values can stand only once.
Tested on: BDF1 mice, Adenocarcinoma 755 s.c., tumor weight T/C
Assay: NCI In Vivo Anticancer Drug Screen. Data for tumor model Adenocarcinoma 755 (subcutaneous) in B6D2F1 (BDF1) mice
Conditions: endpoint: mean tumor weight, higher = larger tumour
Method: The antitumor activity of compounds was measured in mice bearing transplantable tumors. Survival or tumor size were measured and the results are expressed as the measurement made in the treated group (T) divided by the measurement made in the vehicle treated control group (C). The tumor model used in this assay is Adenocarcinoma 755 (subcutaneous) in B6D2F1 (BDF1) mice

Compound: Cc1ccc(Nc2nc(N)nc(C)c2Br)cc1
- T/C (dose: 15.0 mg/kg/injection, schedule: Q01DX011 (ip), vehicle: methylcellulose (MC)): 98 % of control
- T/C (dose: 31.0 mg/kg/injection, schedule: Q01DX011 (ip), vehicle: methylcellulose (MC)): 95 % of control
- T/C (dose: 62.0 mg/kg/injection, schedule: Q01DX011 (ip), vehicle: methylcellulose (MC)): 82 % of control
- T/C (dose: 125.0 mg/kg/injection, schedule: Q01DX011 (ip), vehicle: methylcellulose (MC)): 70 % of control
- T/C (dose: 250.0 mg/kg/injection, schedule: Q01DX011 (ip), vehicle: methylcellulose (MC)): 83 % of control

Compound: CC(C)Cn1cnc2c(SCc3ccccc3F)nc(N)nc21
- T/C (dose: 18.75 mg/kg/injection, schedule: Q01DX011 (ip), vehicle: methylcellulose (MC)): 80 % of control
- T/C (dose: 37.5 mg/kg/injection, schedule: Q01DX011 (ip), vehicle: methylcellulose (MC)): 65 % of control
- T/C (dose: 150.0 mg/kg/injection, schedule: Q01DX011 (ip), vehicle: methylcellulose (MC)): 28 % of control

Compound: CCCCn1nnc2c(Nc3ccc(Cl)cc3)nc(N)nc21
- T/C (dose: 62.5 mg/kg/injection, schedule: Q01DX011 (ip), vehicle: carboxymethylcellulose (CMC)): 96 % of control
- T/C (dose: 125.0 mg/kg/injection, schedule: Q01DX011 (ip), vehicle: carboxymethylcellulose (CMC)): 89 % of control
- T/C (dose: 250.0 mg/kg/injection, schedule: Q01DX011 (ip), vehicle: carboxymethylcellulose (CMC)): 68 % of control

Compound: O=c1[nH]cnc2c1ncn2C1CCCC1
- T/C (dose: 18.1 mg/kg/injection, schedule: Q01DX011 (ip), vehicle: carboxymethylcellulose (CMC)): 81 % of control
- T/C (dose: 18.12 mg/kg/injection, schedule: Q01DX011 (ip), vehicle: carboxymethylcellulose (CMC)): 124 % of control
- T/C (dose: 36.2 mg/kg/injection, schedule: Q01DX011 (ip), vehicle: carboxymethylcellulose (CMC)): 78 % of control
- T/C (dose: 36.25 mg/kg/injection, schedule: Q01DX011 (ip), vehicle: carboxymethylcellulose (CMC)): 90 % of control
- T/C (dose: 56.0 mg/kg/injection, schedule: Q01DX001 (ip), vehicle: carboxymethylcellulose (CMC)): 70 % of control
- T/C (dose: 72.5 mg/kg/injection, schedule: Q01DX011 (ip), vehicle: carboxymethylcellulose (CMC)): 100 % of control and 87 % of control
- T/C (dose: 112.0 mg/kg/injection, schedule: Q01DX001 (ip), vehicle: carboxymethylcellulose (CMC)): 70 % of control
- T/C (dose: 145.0 mg/kg/injection, schedule: Q01DX011 (ip), vehicle: carboxymethylcellulose (CMC)): 75 % of control and 85 % of control
- T/C (dose: 225.0 mg/kg/injection, schedule: Q01DX001 (ip), vehicle: carboxymethylcellulose (CMC)): 37 % of control

Compound: CCN(CC)CCOc1ccc(C2=C(c3ccccc3)CCc3cc(OC)ccc32)cc1
- T/C (dose: 25.0 mg/kg/injection, schedule: Q01DX011 (sc), vehicle: steriod suspending solution): 48 % of control
- T/C (dose: 50.0 mg/kg/injection, schedule: Q01DX011 (sc), vehicle: steriod suspending solution): 32 % of control

Compound: O=NN(CCCl)C(=O)NCCCl
- T/C (dose: 0.45 mg/kg/injection, schedule: Q01DX011 (ip), vehicle: carboxymethylcellulose (CMC)): 63 % of control and 66 % of control and 75 % of control
- T/C (dose: 0.9 mg/kg/injection, schedule: Q01DX011 (ip), vehicle: carboxymethylcellulose (CMC)): 90 % of control and 98 % of control and 86 % of control
- T/C (dose: 1.62 mg/kg/injection, schedule: Q01DX011 (ip), vehicle: saline): 93 % of control and 99 % of control
- T/C (dose: 1.75 mg/kg/injection, schedule: Q01DX011 (ip), vehicle: carboxymethylcellulose (CMC)): 47 % of control
- T/C (dose: 3.25 mg/kg/injection, schedule: Q01DX011 (ip), vehicle: saline): 79 % of control and 84 % of control
- T/C (dose: 3.5 mg/kg/injection, schedule: Q01DX011 (ip), vehicle: carboxymethylcellulose (CMC)): 36 % of control and 40 % of control (2×)
- T/C (dose: 6.5 mg/kg/injection, schedule: Q01DX011 (ip), vehicle: carboxymethylcellulose (CMC)): 32 % of control and 34 % of control
- T/C (dose: 6.5 mg/kg/injection, schedule: Q01DX011 (ip), vehicle: saline): 59 % of control and 78 % of control
- T/C (dose: 7.0 mg/kg/injection, schedule: Q01DX011 (ip), vehicle: carboxymethylcellulose (CMC)): 18 % of control (2×) and 40 % of control
- T/C (dose: 13.0 mg/kg/injection, schedule: Q01DX011 (ip), vehicle: carboxymethylcellulose (CMC)): 13 % of control

Compound: CNc1ncnc2c1cnn2C1CCCO1 (stereo not given)
- T/C (dose: 2.3 mg/kg/injection, schedule: Q01DX011 (ip), vehicle: methylcellulose (MC)): 71 % of control
- T/C (dose: 4.6 mg/kg/injection, schedule: Q01DX011 (ip), vehicle: methylcellulose (MC)): 33 % of control
- T/C (dose: 9.3 mg/kg/injection, schedule: Q01DX011 (ip), vehicle: methylcellulose (MC)): 14 % of control
